SMILES strings stand for the structures.

In experiment [1] the target is T1, Bile acid receptor (Homo sapiens, UniProt Q96RI1).
T1 sequence (Q96RI1 whole entry): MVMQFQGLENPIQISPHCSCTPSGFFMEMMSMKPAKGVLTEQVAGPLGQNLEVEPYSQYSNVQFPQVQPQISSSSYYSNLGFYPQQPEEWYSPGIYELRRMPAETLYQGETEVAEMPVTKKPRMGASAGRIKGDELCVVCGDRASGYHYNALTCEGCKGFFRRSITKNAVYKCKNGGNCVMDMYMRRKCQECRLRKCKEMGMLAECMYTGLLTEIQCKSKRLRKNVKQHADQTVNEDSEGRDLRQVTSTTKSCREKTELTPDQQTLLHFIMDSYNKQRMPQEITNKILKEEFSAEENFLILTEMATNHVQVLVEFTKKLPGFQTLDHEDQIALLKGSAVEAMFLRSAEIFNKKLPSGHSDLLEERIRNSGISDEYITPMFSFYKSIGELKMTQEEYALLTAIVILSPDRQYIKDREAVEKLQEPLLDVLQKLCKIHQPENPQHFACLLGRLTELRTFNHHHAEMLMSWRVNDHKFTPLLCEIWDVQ
Put plainly: Agonist activity at human GST-fused FXR LBD assessed as cofactor peptide interaction with receptor ligand binding domain by FRET assay.

Experiment [2] deals with T2, Bile acid receptor (Homo sapiens) (UniProt Q96RI1).
T2 sequence (whole entry): T1 sequence (Q96RI1 whole entry)
Put plainly: Agonist activity at human GST-fused FXR LBD assessed as cofactor peptide interaction with receptor ligand binding domain by FRET assay relative to GW-4064.

Experiment [3] deals with T1, Bile acid receptor. In words: Agonist activity at human […] FXR LBD expressed in HEK293 cells coexpressing GAL4-DNA bindig domain and pFRluc by mammalian one-hybrid assay. Type of experiment: functional, cell-based.
The target of experiment [4] is T2, Bile acid receptor (Homo sapiens). Put plainly: Agonist activity at human […] FXR LBD expressed in HEK293 cells coexpressing GAL4-DNA bindig domain and pFRluc by mammalian one-hybrid assay relative to GW-4064. Type of experiment: functional, cell-based.
Experiment [5] has as its target T1, Bile acid receptor. In words: Agonist activity at human full length FXR transfected in HEK293 cells coexpressing pTRexDest/pGL2promotor assessed as luciferase activity by direct reporter cellular assay. Type of experiment: functional, cell-based.
For experiment [6], the target named is T2, Bile acid receptor (Homo sapiens). Put plainly: Agonist activity at human full length FXR transfected in HEK293 cells coexpressing pTRexDest/pGL2promotor assessed as luciferase activity by direct reporter cellular assay relative to GW-4064. Type of experiment: functional, cell-based.

In the case of `CC(C)c1onc(-c2c(Cl)cccc2Cl)c1COc1cnc(N(C)Cc2ccc(C(=O)O)cc2)c(Cl)c1`, the EC50 (as a rule, the concentration giving half of the maximal effect) at Bile acid receptor [1] is 242 nM; on Bile acid receptor [3] (read-out: EC50), 107 nM; on Bile acid receptor [5] (read-out: EC50) it was 120 nM. Also, the Efficacy in experiment [2] stood at 103%; in experiment [4] it was 70%; in experiment [6] it was 51%.

Regarding `CC(C)c1onc(-c2c(Cl)cccc2Cl)c1COc1cnc(N(C)Cc2cccc(C(=O)O)c2)c(Cl)c1`, the values for the EC50 at Bile acid receptor [1], on Bile acid receptor [3] (read-out: EC50) and on Bile acid receptor [5] (read-out: EC50) were 190 nM, 100 nM and 61 nM, respectively. For the same compound, the Efficacy in experiment [2] turned out to be 105%; in experiment [4], 42%; in experiment [6] it was 54%.

Take `CC(c1ccc(OCc2c(-c3c(Cl)cccc3Cl)noc2C2CC2)nc1C(F)(F)F)N(C)c1ccc(C(=O)O)cc1` (stereo unspecified): the EC50 on Bile acid receptor [1] was 179 nM; at Bile acid receptor [3] (read-out: EC50), 208 nM; at Bile acid receptor [5] (read-out: EC50), 182 nM. The Efficacy in experiment [2] worked out at 102%; in experiment [4], 55%; in experiment [6], 57%.

Regarding `Cc1cc(OCc2c(-c3c(Cl)cccc3Cl)noc2C(C)C)nc2ccccc12`, the EC50 came to 147 nM at Bile acid receptor [1], 536 nM on Bile acid receptor [3] (read-out: EC50) and 878 nM at Bile acid receptor [5] (read-out: EC50). Also, the Efficacy in experiment [2] was determined as 104%; in experiment [4], 40%; in experiment [6] it was 68%.

Take `O=C(O)c1ccccc1OCc1ccc(OCc2c(-c3c(Cl)cccc3Cl)noc2C2CC2)nc1C(F)(F)F`: the EC50 turned out to be 434 nM on Bile acid receptor [1], 1710 nM at Bile acid receptor [3] (read-out: EC50) and 611 nM at Bile acid receptor [5] (read-out: EC50). In addition, the Efficacy in experiment [2] turned out to be 91%; in experiment [4] it was 63%; in experiment [6], 33%.

On to `CCN(Cc1ccc(C(=O)O)cc1)c1ccc(OCc2c(-c3c(Cl)cccc3Cl)noc2C2CC2)nc1C(F)(F)F`, for which the concentration for a half-maximal effect (EC50) on Bile acid receptor [1] stood at 194 nM; at Bile acid receptor [3] (read-out: EC50), 180 nM; on Bile acid receptor [5] (read-out: EC50), 113 nM. Also, the Efficacy came out at 94% in experiment [2], 54% in experiment [4] and 43% in experiment [6].

Consider `CC(C)c1onc(-c2c(Cl)cccc2Cl)c1COc1ccc(N(C)Cc2ccc(OCCO)cc2)c(C(F)(F)F)n1`, for which the figures for the EC50 on Bile acid receptor [1], at Bile acid receptor [3] (read-out: EC50) and on Bile acid receptor [5] (read-out: EC50) were 164 nM, 1150 nM and 155 nM, respectively. The Efficacy in experiment [2] was determined as 87%; in experiment [4] it was 43%; in experiment [6], 59%.

With `CC(Oc1cccc(C(=O)O)c1)c1ccc(OCc2c(-c3c(Cl)cccc3Cl)noc2C2CC2)nc1C(F)(F)F` (stereo unspecified), the EC50 on Bile acid receptor [1] was 155 nM; at Bile acid receptor [3] (read-out: EC50) it was 107 nM; at Bile acid receptor [5] (read-out: EC50) it was 58 nM. The figures for the Efficacy in experiment [2], in experiment [4] and in experiment [6] were 102%, 50% and 49%, respectively.

Regarding `CC(C)c1onc(-c2c(Cl)cccc2Cl)c1COc1ccc(N(C)Cc2ccc(CCC(=O)O)cc2)c(C(F)(F)F)n1`, the EC50 on Bile acid receptor [1] was 17 nM; at Bile acid receptor [3] (read-out: EC50), 35 nM; at Bile acid receptor [5] (read-out: EC50) it was 16 nM. For the same compound, the Efficacy stood at 96% in experiment [2], 55% in experiment [4] and 66% in experiment [6].

`CC(C)c1onc(-c2c(Cl)cccc2Cl)c1COc1ccc(/C=C/c2cccc(C(=O)O)c2)c(Cl)c1`: the Efficacy in experiment [2], in experiment [4] and in experiment [6] was 100% throughout.

For the compound `Cc1cc(OCc2c(-c3c(Cl)cccc3Cl)[n-][o+]c2C(C)C)ncc1[N+](=O)[O-]`, the EC50 at Bile acid receptor [1] was 89 nM; on Bile acid receptor [3] (read-out: EC50), 1000 nM; on Bile acid receptor [5] (read-out: EC50), 1140 nM.

Turning to `Cc1cc(OCc2c(-c3c(Cl)cccc3Cl)noc2C(C)C)ncc1[N+](=O)[O-]`, the Efficacy in experiment [2] was determined as 101%; in experiment [4] it was 58%; in experiment [6], 76%.

On to `Cc1cc(C(F)(F)F)cc(OCc2c(-c3c(Cl)cccc3Cl)noc2C(C)C)n1`, for which the concentration giving a half-maximal response (EC50) on Bile acid receptor [1] is 225 nM; at Bile acid receptor [3] (hek293), “Not Active”; at Bile acid receptor [5] (hek293) it was “Not Active”.

These data come from ChEMBL document CHEMBL1208782, “Synthesis and pharmacological validation of a novel series of non-steroidal FXR agonists” (Bioorg Med Chem Lett, 2010).
